Biological target: α4β7 integrin (Homo sapiens (Human), UniProt P13612+P26010)
Experiment: α4β7 Integrin Cell Capture Assay
Assay type: cell-based
Conditions: RPMI8866 cells captured on MadCAM-1 extracellular domain-coated plate
Method: α4β7 Integrin Cell Capture Assay
The potency of inhibitors in preventing α4β7 integrin interaction with MadCAM-1 was measured by monitoring the capture of α4β7 integrin expressing cells on a recombinant MadCAM-1 extracellular domain-coated plate. […] The plates were then washed with PBS and blocked with 3% BSA for 2 hours before being washed again.
RPM18866 cells were spun down and re-suspended in assay medium (DMEM+0.5% FBS+0.5 mM MnCl2) at a density of 0.5×10^6 cells/mL. […] The plates were incubated at 37° C. for 1 hour. 50 μL of cells were transferred to the blocked, MadCAM-1-coated plates and incubated for 30 minutes at 37° C. […] The plates were incubated for 90 minutes at room temperature. The plates were then washed 3 times with 70 μL of PBS per well and imaged on a Cellomics ArrayScan instrument. The cells that were bound to the plate were counted and plotted against the compound concentration to determine the EC50 of the test compounds.

Sequence of α4β7 integrin (P13612 34-1032): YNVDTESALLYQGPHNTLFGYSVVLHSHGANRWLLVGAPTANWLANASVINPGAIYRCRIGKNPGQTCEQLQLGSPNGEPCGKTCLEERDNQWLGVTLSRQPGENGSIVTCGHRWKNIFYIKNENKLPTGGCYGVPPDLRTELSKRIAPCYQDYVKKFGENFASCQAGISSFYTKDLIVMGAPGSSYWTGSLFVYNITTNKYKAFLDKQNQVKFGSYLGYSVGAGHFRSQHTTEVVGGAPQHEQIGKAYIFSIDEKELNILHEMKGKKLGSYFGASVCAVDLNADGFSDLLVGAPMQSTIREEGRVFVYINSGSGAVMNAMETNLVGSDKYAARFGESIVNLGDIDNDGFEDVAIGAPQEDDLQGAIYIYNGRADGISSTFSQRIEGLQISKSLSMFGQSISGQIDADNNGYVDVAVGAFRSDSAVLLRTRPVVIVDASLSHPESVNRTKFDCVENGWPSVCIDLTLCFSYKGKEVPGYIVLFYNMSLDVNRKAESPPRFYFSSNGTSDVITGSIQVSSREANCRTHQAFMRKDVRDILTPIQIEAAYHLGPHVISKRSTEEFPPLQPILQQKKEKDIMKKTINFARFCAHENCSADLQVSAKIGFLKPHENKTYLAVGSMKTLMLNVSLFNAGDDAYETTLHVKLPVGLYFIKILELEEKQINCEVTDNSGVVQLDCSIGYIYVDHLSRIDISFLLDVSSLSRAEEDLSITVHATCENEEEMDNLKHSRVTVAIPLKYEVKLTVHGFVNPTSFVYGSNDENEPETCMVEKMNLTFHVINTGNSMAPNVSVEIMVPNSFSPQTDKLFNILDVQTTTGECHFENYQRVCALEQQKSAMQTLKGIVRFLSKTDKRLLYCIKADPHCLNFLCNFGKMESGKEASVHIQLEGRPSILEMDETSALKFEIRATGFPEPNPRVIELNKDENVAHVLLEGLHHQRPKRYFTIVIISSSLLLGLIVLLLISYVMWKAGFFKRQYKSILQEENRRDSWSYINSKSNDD
Sequence of α4β7 integrin (P26010 20-798): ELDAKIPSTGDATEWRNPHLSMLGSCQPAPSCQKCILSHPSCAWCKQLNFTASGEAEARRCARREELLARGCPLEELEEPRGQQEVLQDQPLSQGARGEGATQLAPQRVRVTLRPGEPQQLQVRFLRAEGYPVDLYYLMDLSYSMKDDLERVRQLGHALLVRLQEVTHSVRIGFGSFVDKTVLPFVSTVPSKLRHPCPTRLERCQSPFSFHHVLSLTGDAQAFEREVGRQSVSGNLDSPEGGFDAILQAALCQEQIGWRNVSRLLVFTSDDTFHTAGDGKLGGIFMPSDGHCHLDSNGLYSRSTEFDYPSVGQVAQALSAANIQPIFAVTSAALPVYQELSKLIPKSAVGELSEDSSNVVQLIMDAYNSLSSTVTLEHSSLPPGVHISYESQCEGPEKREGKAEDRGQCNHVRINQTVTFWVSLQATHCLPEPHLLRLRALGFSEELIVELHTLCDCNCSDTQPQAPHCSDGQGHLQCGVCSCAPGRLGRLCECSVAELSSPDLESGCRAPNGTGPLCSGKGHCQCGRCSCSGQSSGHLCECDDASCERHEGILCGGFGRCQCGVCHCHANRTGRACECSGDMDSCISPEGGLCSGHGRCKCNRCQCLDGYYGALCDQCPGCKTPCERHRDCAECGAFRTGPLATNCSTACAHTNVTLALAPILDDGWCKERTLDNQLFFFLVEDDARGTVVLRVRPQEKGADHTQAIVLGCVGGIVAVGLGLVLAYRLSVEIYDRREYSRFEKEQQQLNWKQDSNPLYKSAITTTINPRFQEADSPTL

SMILES | EC50
Cc1cc(N2CCOC[C@@H]2C(F)(F)F)cc(F)c1C(=O)N[C@@H](Cc1ccc(-n2c(=O)c3ccncc3n(C)c2=O)c2ncccc12)C(=O)O (atropisomer, axis not shown) [Example 408, (S)-2-(2-fluoro-6-methyl-4-((R)-3-(trifluoromethyl)morpholino)benzamido)-3-(8-(1-methyl-2,4-dioxo-1,4-dihydropyrido[3,4-d]pyrimidin-3(2H)-yl)quinolin-5-yl)propanoic acid] | 0.049 nM
Cc1cc(N2CCOC[C@@H]2C(F)(F)F)cc(F)c1C(=O)N[C@@H](Cc1ccc(-c2c(C(F)(F)F)cc(C)n(C)c2=O)c2ncccc12)C(=O)O (atropisomer, axis not shown) [Example 461] | 0.093 nM
Cc1cc(C(F)(F)F)c(-c2ccc(C[C@H](NC(=O)c3c(F)cc(N4CCC[C@@H]4C(F)(F)F)cc3F)C(=O)O)c3cccnc23)c(=O)n1C (atropisomer, axis not shown) [Example 485] | 0.233 nM
Cc1cc(C(F)(F)F)c(-c2ccc(C[C@H](NC(=O)c3c(F)cc(N4CCN(C)C[C@@H]4C(F)(F)F)cc3F)C(=O)O)c3cccnc23)c(=O)n1C (atropisomer, axis not shown) [Example 486] | 1.31 nM
Cc1cc(N2CCOC[C@@H]2C(F)(F)F)cc(F)c1C(=O)N[C@@H](Cc1ccc(-n2c(=O)c3ccncc3n(C)c2=O)c2ncccc12)C(=O)O (single isomer, unassigned) [Example 407] | 0.162 nM

Same assay, conditions: Table 1; capture of α4β7 expressing RPM18866 cells on MadCAM-1 extracellular domain-coated plate

SMILES | EC50
CC[C@@H](Nc1cc(F)c(C(=O)N[C@@H](Cc2ccc(-c3c(C)c4cc(F)ccc4n(C)c3=O)c3ncccc23)C(=O)O)c(F)c1)C(F)(F)F (atropisomer, axis not shown) [Example 109, (S)-2-(2,6-difluoro-4-(((R)-1,1,1-trifluorobutan-2-yl)amino)benzamido)-3-(6-fluoro-1,4-dimethyl-2-oxo-1,2-dihydro-[3,8′-biquinolin]-5′-yl)propanoic acid] | 0.3 nM
CC[C@@H](Nc1cc(F)c(C(=O)N[C@@H](Cc2ccc(-c3c(C(F)(F)F)cc(C)n(C)c3=O)c3ncccc23)C(=O)O)c(F)c1)C(F)(F)F (single isomer, unassigned) [Example 107] | 0.2 nM
CC[C@@H](Nc1cc(F)c(C(=O)N[C@@H](Cc2ccc(-c3c(C(F)(F)F)cc(C)n(C)c3=O)c3ncccc23)C(=O)O)c(F)c1)C(F)(F)F (single isomer, unassigned) [Example 147] | 1.9 nM
Cc1cccc(F)c1C(=O)N[C@@H](Cc1ccc(-c2ccc(C#N)cc2Cl)c2ncccc12)C(=O)O [Example 1, (S)-3-(8-(2-chloro-4-cyanophenyl)quinolin-5-yl)-2-(2-fluoro-6-methylbenzamido)propanoic acid] | 21.2 nM
N#Cc1ccc(-c2ccc(C[C@H](NC(=O)c3c(F)cccc3Cl)C(=O)O)c3cccnc23)c(Cl)c1 [Example 2, (S)-3-(8-(2-chloro-4-cyanophenyl)quinolin-5-yl)-2-(2-chloro-6-fluorobenzamido)propanoic acid] | 31.1 nM
N#Cc1ccc(-c2ccc(C[C@H](NC(=O)c3c(F)cccc3F)C(=O)O)c3cccnc23)c(Cl)c1 [Example 3, (S)-3-(8-(2-chloro-4-cyanophenyl)quinolin-5-yl)-2-(2,6-difluorobenzamido)propanoic acid] | 63.8 nM
N#Cc1cc(Cl)c(-c2ccc(C[C@H](NC(=O)c3c(Cl)cccc3Cl)C(=O)O)c3cccnc23)c(Cl)c1 [Example 4, (S)-3-(8-(2,6-dichloro-4-cyanophenyl)quinolin-5-yl)-2-(2,6-dichlorobenzamido)propanoic acid] | 6.7 nM
COc1cc(Cl)c(Cl)cc1-c1ccc(C[C@H](NC(=O)c2c(F)cccc2F)C(=O)O)c2cccnc12 [Example 5, (S)-3-(8-(4,5-dichloro-2-methoxyphenyl)quinolin-5-yl)-2-(2,6-difluorobenzamido)propanoic acid] | 17.4 nM
COc1cc(F)cc(C(F)(F)F)c1-c1ccc(C[C@H](NC(=O)c2c(F)cccc2F)C(=O)O)c2cccnc12 [Example 6, (2S)-2-(2,6-difluorobenzamido)-3-(8-(4-fluoro-2-methoxy-6-(trifluoromethyl)phenyl)quinolin-5-yl)propanoic acid] | 4.5 nM
COc1cc2ccccc2cc1-c1ccc(C[C@H](NC(=O)c2c(F)cccc2F)C(=O)O)c2cccnc12 [Example 9, (S)-2-(2,6-difluorobenzamido)-3-(8-(3-methoxynaphthalen-2-yl)quinolin-5-yl)propanoic acid] | 25.1 nM
Cc1cc(C)c(-c2ccc(C[C@H](NC(=O)c3c(F)cccc3F)C(=O)O)c3cccnc23)nc1C [Example 11, (S)-2-(2,6-difluorobenzamido)-3-(8-(3,5,6-trimethylpyridin-2-yl)quinolin-5-yl)propanoic acid] | 22.9 nM
Cc1cc(C(F)(F)F)c(-c2ccc(C[C@H](NC(=O)c3c(F)cccc3F)C(=O)O)c3cccnc23)nc1C [Example 12, (S)-2-(2,6-difluorobenzamido)-3-(8-(5,6-dimethyl-3-(trifluoromethyl)pyridin-2-yl)quinolin-5-yl)propanoic acid] | 7 nM
Cn1c(=O)c(-c2ccc(C[C@H](NC(=O)c3c(F)cccc3F)C(=O)O)c3cccnc23)cc2ccccc21 [Example 14, (S)-2-(2,6-difluorobenzamido)-3-(1-methyl-2-oxo-1,2-dihydro-[3,8′-biquinolin]-5′-yl)propanoic acid] | 3.7 nM
N#Cc1ccc(-c2ccc(C[C@H](NC(=O)c3c(F)ccc(OC(F)F)c3F)C(=O)O)c3cccnc23)c(Cl)c1 [Example 16, (S)-3-(8-(2-chloro-4-cyanophenyl)quinolin-5-yl)-2-(3-(difluoromethoxy)-2,6-difluorobenzamido)propanoic acid] | 67.4 nM
CCOCc1cc(OC)c(-c2ccc(C[C@H](NC(=O)c3c(F)cccc3F)C(=O)O)c3cccnc23)c(OC)c1 [Example 18, (S)-2-(2,6-difluorobenzamido)-3-(8-(4-(ethoxymethyl)-2,6-dimethoxyphenyl)quinolin-5-yl)propanoic acid] | 9 nM
O=C(N[C@@H](Cc1ccc(-c2c(Cl)cc(F)cc2Cl)c2ncccc12)C(=O)O)c1c(F)cccc1F [Example 19, (S)-3-(8-(2,6-dichloro-4-fluorophenyl)quinolin-5-yl)-2-(2,6-difluorobenzamido)propanoic acid] | 50 nM
O=C(N[C@@H](Cc1ccc(-c2c(Cl)cncc2Cl)c2ncccc12)C(=O)O)c1c(F)cccc1F [Example 20, (S)-3-(8-(3,5-dichloropyridin-4-yl)quinolin-5-yl)-2-(2,6-difluorobenzamido)propanoic acid] | 186 nM
N#Cc1ccc(-c2ccc(C[C@H](NC(=O)c3c(Cl)cc(F)cc3Cl)C(=O)O)c3cccnc23)c(Cl)c1 [Example 22, (S)-3-(8-(2-chloro-4-cyanophenyl)quinolin-5-yl)-2-(2,6-dichloro-4-fluorobenzamido)propanoic acid] | 48.5 nM
COc1cccc(F)c1C(=O)N[C@@H](Cc1ccc(-c2ccc(C#N)cc2Cl)c2ncccc12)C(=O)O [Example 23, (S)-3-(8-(2-chloro-4-cyanophenyl)quinolin-5-yl)-2-(2-fluoro-6-methoxybenzamido)propanoic acid] | 46.7 nM
CC(O)Cc1cc(F)c(C(=O)N[C@@H](Cc2ccc(-c3ccc(C#N)cc3Cl)c3ncccc23)C(=O)O)c(F)c1 (stereo partly drawn) [Example 24, (2S)-3-(8-(2-chloro-4-cyanophenyl)quinolin-5-yl)-2-(2,6-difluoro-4-(2-hydroxypropyl)benzamido)propanoic acid] | 56.7 nM
N#Cc1ccc(-c2ccc(C[C@H](NC(=O)c3c(F)cc(C(=O)O)cc3F)C(=O)O)c3cccnc23)c(Cl)c1 [Example 25, (S)-4-((1-carboxy-2-(8-(2-chloro-4-cyanophenyl)quinolin-5-yl)ethyl)carbamoyl)-3,5-difluorobenzoic acid] | 3.3 nM

Same assay, conditions: Table 2; capture of α4β7 expressing RPM18866 cells on MadCAM-1 extracellular domain-coated plate

SMILES | EC50
CC[C@@H](Nc1cc(F)c(C(=O)N[C@@H](Cc2ccc(-c3c(C(F)(F)F)c4cc(N(C)C)ccc4n(C)c3=O)c3ncccc23)C(=O)O)c(F)c1)C(F)(F)F (atropisomer, axis not shown) [Example 168] | 0.5 nM
CC[C@@H](Nc1cc(F)c(C(=O)N[C@@H](Cc2ccc(-c3c(C)c4cc(F)ccc4n(C)c3=O)c3ncccc23)C(=O)O)c(F)c1)C(F)(F)F (atropisomer, axis not shown) [Example 185] | 1 nM
Cc1cc(C(F)(F)F)c(-c2ccc(C[C@H](NC(=O)c3c(F)cc(N4CCCC[C@@H]4C(F)(F)F)cc3F)C(=O)O)c3cccnc23)c(=O)n1C (atropisomer, axis not shown) [Example 230] | 2.2 nM
CC[C@@H](Nc1cc(F)c(C(=O)N[C@@H](Cc2ccc(-c3c(C)n(C)c(=O)n(C)c3=O)c3ncccc23)C(=O)O)c(F)c1)C(F)(F)F (atropisomer, axis not shown) [Example 234] | 2.3 nM
CC[C@@H](Nc1cc(F)c(C(=O)N[C@@H](Cc2ccc(-c3c(C(F)(F)F)c4cc(N(C)C)ccc4n(C)c3=O)c3ncccc23)C(=O)O)c(F)c1)C(F)(F)F (atropisomer, axis not shown) [Example 302] | 9.4 nM
Cc1cc(C(F)(F)F)c(-c2ccc(C[C@H](NC(=O)c3c(F)cc(N4CCCC[C@@H]4C(F)(F)F)cc3F)C(=O)O)c3cccnc23)c(=O)n1C (atropisomer, axis not shown) [Example 344] | 0.8 nM
